Where “and” joins values, the source holds several entries; their conditions need not be identical. Equal values may be shown once.
System: NCI-H196 complex spheroid growth, percent test/control
Assay: Anticancer human tumor NCI-H196 cell line growth inhibition [AhR];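 also: seven days of drug exposure starting three days after plating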;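 as to viability, T/C: 100% = DMSO vehicle control wells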
Conditions: for viability, T/C: stronger effect = lower value; active = viability on the fitted dose curve at most 10% of control; inactive = the rest
Description: Multicellular complex tumor spheroid response to aryl hydrocarbon receptor antagonists in combination with a variety of drugs and investigational agents in selected tumor cell lines
The current study was undertaken to assess response to aryl hydrocarbon receptor antagonists in combination with standard-of-care drugs and investigational agents in solid tumor complex spheroid models. Complex spheroids include a stromal component modeled by human endothelial cells (HUVEC) and fibroblasts modeled by human mesenchymal stem cells (MSCs). The concentration ranges selected for each drug and investigational agent were based upon clinically achievable concentrations if the clinical Cmax of the agent was known.
Compounds. The drugs and investigational agents: BAY 2416964 (NSC825713), GNF351 (NSC835774), CH-223191 (NSC835775), CPI-455 (NSC825282), aza-TdCyd (NSC777586), decitabine (NSC127716), belinostat (NSC758774), entinostat (NSC756642), pevonedistat (NSC761192), tazemetostat (NSC777109), talazoparib (NSC765396), olaparib (NSC753686), selinexor (NSC780203), nedisertib (M3814, NSC802822), bortezomib (NSC756655), venetoclax (NSC766270), doxorubicin (NSC123127), elimusertib (BAY189344, NSC800525), ceralasertib (AZD6738, NSC777638), TAK-243 (NSC785004), alisertib (NSC759677), etoposide (NSC141540), topotecan (NSC609699), eribulin (NSC707389), gemcitabine (NSC613327), carboplatin (NSC241240), cisplatin (NSC119875), and SN-38 (NSC673596) were obtained from the National Cancer Institute (NCI) Developmental Therapeutics Program Chemical Repository (32). The FDA-approved anticancer drug set is available from the Developmental Therapeutics Program at https://dtp.cancer.gov/organization/dscb/obtaining/available plates.htm. […] The stock solutions were prepared in dimethyl sulfoxide (DMSO, Sigma-Aldrich, St. Louis, MO, cat. D2650), except for the platinum compounds which were prepared in saline (Quality Biological, Gaithersburg, MD, cat. 114-055-101), at 800-fold the tested concentration and stored at -70 degrees C prior to their use. All drugs and investigational agents were tested over a range starting from a high concentration at or near the clinical Cmax and decreasing in half-log increments. If the clinical Cmax for an agent had not been determined, the highest concentration tested was 10 microM (Table 1).
Cell Culture. All cells were maintained in an incubator at 37 degrees C and 5% CO2 with 95% humidity. The PDC lines were cultured according to standard operating procedures established by the NCI PDMR (https://pdmr.cancer.gov). Briefly, all PDCs were thawed and cultured in Matrigel-coated flasks prepared with a working solution of 1X Ham's F-12 nutrient mix, without supplementation (Invitrogen, Waltham, MA, cat. 11765054), 100 U/mL penicillin-streptomycin (Invitrogen, cat. 15140122), and 2.5% Matrigel (Corning Inc., Corning, NY, cat. 354248) for the first three passages. All PDCs were cultured in complete DMEM/F-12 media containing advanced DMEM/F-12 (Invitrogen, cat. 12634028), 4.9% defined fetal bovine serum, heat inactivated (HyClone Laboratories Inc., Logan, UT, cat. SH30070.03HI), 389 ng/mL hydrocortisone (Sigma-Aldrich, cat. H4001), 9.7 ng/mL human EGF recombinant protein (Invitrogen, cat. PHG0313), 23.4 microg/mL adenine (Sigma-Aldrich, cat. A2786), 97.3 U/mL penicillin-streptomycin (Invitrogen, cat. 15140122), 1.9 mM L-glutamine (Invitrogen, cat. 25030081), and 9.7 microM Y-27632 dihydrochloride (Tocris Bioscience, Bristol, United Kingdom, cat. 1254). The PDCs were cultured in complete DMEM/F12 media without 10 microM Y-27632 dihydrochloride for at least two passages prior to the screen. The established cell lines NCI-H1341 and […] were cultured in DMEM/F-12, HEPES (Invitrogen, cat. 11330032), 5% defined fetal bovine serum (HyClone Laboratories Inc., cat. SH30070.03), ITS premix universal culture supplement [insulin (5 microg/mL), transferrin (5 microg/mL), and selenious acid (5 ng/mL)] […]

[1] = curve of first compound, second compound 0.1 µM
[2] = curve of first compound, second compound 0.316 µM
[3] = curve of first compound, second compound 1 µM
[4] = curve of first compound, second compound 3.16 µM
[5] = curve of first compound, second compound 10 µM

CCc1c2c(nc3ccc(O)cc13)-c1cc3c(c(=O)n1C2)COC(=O)[C@]3(O)CC + Cc1cncc(-c2nc(NCCc3c[nH]c4ccccc34)c3ncn(C(C)C)c3n2)c1
inactive: viability, T/C (second compound 0.1 µM, first compound 0.000949 µM) 99.9% | viability, T/C (second compound 0.1 µM, first compound 0.003 µM) 102% | viability, T/C (second compound 0.1 µM, first compound 0.00949 µM) 104% | viability, T/C (second compound 0.1 µM, first compound 0.03 µM) 102% | viability, T/C (second compound 0.1 µM, first compound 0.0949 µM) 87.6% | viability, T/C (second compound 0.1 µM, first compound 0.3 µM) 78.5% | viability, T/C (second compound 0.316 µM, first compound 0.000949 µM) 91.3% | viability, T/C (second compound 0.316 µM, first compound 0.003 µM) 91.9% | viability, T/C (second compound 0.316 µM, first compound 0.00949 µM) 96% | viability, T/C (second compound 0.316 µM, first compound 0.03 µM) 100% | viability, T/C (second compound 0.316 µM, first compound 0.0949 µM) 77.2% | viability, T/C (second compound 0.316 µM, first compound 0.3 µM) 74.2% | viability, T/C (second compound 1 µM, first compound 0.000949 µM) 99.3% | viability, T/C (second compound 1 µM, first compound 0.003 µM) 109% | viability, T/C (second compound 1 µM, first compound 0.00949 µM) 116% | viability, T/C (second compound 1 µM, first compound 0.03 µM) 102% | viability, T/C (second compound 1 µM, first compound 0.0949 µM) 96.9% | viability, T/C (second compound 1 µM, first compound 0.3 µM) 57.8% | viability, T/C (second compound 3.16 µM, first compound 0.000949 µM) 96.9% | viability, T/C (second compound 3.16 µM, first compound 0.003 µM) 102% | viability, T/C (second compound 3.16 µM, first compound 0.00949 µM) 92.4% | viability, T/C (second compound 3.16 µM, first compound 0.03 µM) 85.6% | viability, T/C (second compound 3.16 µM, first compound 0.0949 µM) 86.7% | viability, T/C (second compound 3.16 µM, first compound 0.3 µM) 52.5% | viability, T/C (second compound 10 µM, first compound 0.000949 µM) 82.9% | viability, T/C (second compound 10 µM, first compound 0.003 µM) 88.5% | viability, T/C (second compound 10 µM, first compound 0.00949 µM) 90% | viability, T/C (second compound 10 µM, first compound 0.03 µM) 65.5% | viability, T/C (second compound 10 µM, first compound 0.0949 µM) 54.6% | viability, T/C (second compound 10 µM, first compound 0.3 µM) 30.5%
104 nM: IC50 [5]
> 300 nM: IC50 [1] | IC50 [2] | IC50 [3] | IC50 [4]

CCN(c1cc(-c2ccc(CN3CCOCC3)cc2)cc(C(=O)NCc2c(C)cc(C)[nH]c2=O)c1C)C1CCOCC1
inactive: viability, T/C (compound 0.00949 µM) 98.5% and 117% and 104% | viability, T/C (compound 0.03 µM) 103% and 99.6% and 104% | viability, T/C (compound 0.0949 µM) 92.1% and 98.2% and 99.4% | viability, T/C (compound 0.3 µM) 111% and 101% and 107% | viability, T/C (compound 0.949 µM) 110% (2×) and 106% | viability, T/C (compound 3 µM) 104% and 94.1% and 107%
> 3000 nM: IC50 (curve of compound)

Cn1ncnc1C1c2n[nH]c(=O)c3cc(F)cc(c23)NC1c1ccc(F)cc1 (configuration not stated) + CC(CO)NC(=O)c1cc(-c2ccc(Cl)cc2)nn(-c2cnn(C)c2)c1=O
inactive: viability, T/C (second compound 0.1 µM, first compound 0.000316 µM) 111% | viability, T/C (second compound 0.1 µM, first compound 0.001 µM) 107% | viability, T/C (second compound 0.1 µM, first compound 0.00316 µM) 103% | viability, T/C (second compound 0.1 µM, first compound 0.01 µM) 102% | viability, T/C (second compound 0.1 µM, first compound 0.0316 µM) 113% | viability, T/C (second compound 0.1 µM, first compound 0.1 µM) 103% | viability, T/C (second compound 0.316 µM, first compound 0.000316 µM) 104% | viability, T/C (second compound 0.316 µM, first compound 0.001 µM) 109% | viability, T/C (second compound 0.316 µM, first compound 0.00316 µM) 102% | viability, T/C (second compound 0.316 µM, first compound 0.01 µM) 99.2% | viability, T/C (second compound 0.316 µM, first compound 0.0316 µM) 101% | viability, T/C (second compound 0.316 µM, first compound 0.1 µM) 105% | viability, T/C (second compound 1 µM, first compound 0.000316 µM) 113% | viability, T/C (second compound 1 µM, first compound 0.001 µM) 112% | viability, T/C (second compound 1 µM, first compound 0.00316 µM) 104% | viability, T/C (second compound 1 µM, first compound 0.01 µM) 105% | viability, T/C (second compound 1 µM, first compound 0.0316 µM) 114% | viability, T/C (second compound 1 µM, first compound 0.1 µM) 109% | viability, T/C (second compound 3.16 µM, first compound 0.000316 µM) 106% | viability, T/C (second compound 3.16 µM, first compound 0.001 µM) 119% | viability, T/C (second compound 3.16 µM, first compound 0.00316 µM) 118% | viability, T/C (second compound 3.16 µM, first compound 0.01 µM) 104% | viability, T/C (second compound 3.16 µM, first compound 0.0316 µM) 103% | viability, T/C (second compound 3.16 µM, first compound 0.1 µM) 107% | viability, T/C (second compound 10 µM, first compound 0.000316 µM) 122% | viability, T/C (second compound 10 µM, first compound 0.001 µM) 111% | viability, T/C (second compound 10 µM, first compound 0.00316 µM) 110% | viability, T/C (second compound 10 µM, first compound 0.01 µM) 103% | viability, T/C (second compound 10 µM, first compound 0.0316 µM) 108% | viability, T/C (second compound 10 µM, first compound 0.1 µM) 104%
> 100 nM: IC50 [1] | IC50 [2] | IC50 [3] | IC50 [4] | IC50 [5]

Reference: PubChem BioAssay AID1919016 (Molecular Pharmacology Branch, DTP, NCI, 2023)
